From US4774248A, “Methods of treating depression and depressive states using 5-phenyl-1,4,5,6-tetrahydropyrimidine derivatives” (priority 1985, dated 1988)
“Also recorded” adds a separate entry of the source.

Assays:
anesthetized dogs [1] = assay: Cardiovascular study in anesthetized dogs; type: in vivo
[2] = system: stereotypies induced by apomorphine; assay: Interaction with apomorphine in rats; type: in vivo; conditions: i.p., apomorphine 0.5 mg/kg s.c.
Method: (§1) The results of toxicological and neuropsychopharmacological tests which were carried out with the products according to the invention have been summarized below. In these tests, solutions of the said products in distilled water were administered intraperitoneally in a volume of 20 ml/kg to male mice and in a volume of 5 ml/kg to male rats.
CRL 41 378 is administered to groups of 12 rats 0.5 h before the subcutaneous injection of 0.5 mg/kg of apomorphine.

[3] = system: trembling and head twitches induced by 5-hydroxytryptophan (5-HTP); assay: Interaction with 5-hydroxytryptophan in association with an MAOI (nialamide); type: in vivo, male mice
Summary of the method: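 Male mice (groups of 10) got nialamide 20 mg/kg intragastric at T-18 h, test product i.p. in water at T-0.5 h, then (±)-5-HTP 20 mg/kg i.p. at T. Generalized trembling, partial trembling and head twitches scored yes/no over 2 h.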

mice [4] = assay: Electric shock; type: in vivo; conditions: i.p.
Method: as §1
(§2) The test is performed on groups of 10 mice 30 minutes after the administration of CRL 41 378.

mice [5] = assay: Motility reduced by habituation to the enclosure; type: in vivo; conditions: i.p.
Summary of the method: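 Male mice, habituated 18 h in actimeters (6 per dose, 12 controls), received CRL 41 378 intraperitoneally in distilled water at 20 ml/kg. Motility was recorded for 30 min, starting 30 min post-dose.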

pregnant rabbits = assay: Teratogenic effects on pregnant rabbits; type: in vivo
mice [6] = assay: Overall behavior and reactivities in mice; type: in vivo; conditions: i.p.
Summary of the method: (§3)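 Male mice (20 ml/kg) and male rats (5 ml/kg) dosed intraperitoneally with compound in distilled water.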

mice [7] = assay: Spontaneous motility (actimeter); type: in vivo; conditions: i.p.
Summary of the method: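 Male mice (6 per dose, 12 controls) received CRL 41 378 in distilled water i.p. at 20 ml/kg; 0.5 h later they were placed in an actimeter and motility was recorded for 30 minutes.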

mice [8] = assay: Motility reduced by hypoxic aggression (acute hypobaric anoxia); type: in vivo; conditions: i.p., hydrochloride
Method: In these tests, solutions of the said products in distilled water were administered intraperitoneally in a volume of 20 ml/kg to male mice and in a volume of 5 ml/kg to male rats.

[9] = system: sleep induced by barbital; assay: Interaction with barbital; type: in vivo; conditions: mice, i.p.; barbital 220 mg/kg
Method: as §1
Half an hour after the administration of CRL 41 378, groups of 10 mice receive an intraperitoneal injection of barbital (220 mg/kg).

anesthetized dogs [10] = assay: Cardiovascular study in anesthetized dogs; type: in vivo; remark: listed apart in the source
Method: Groups of 2 adult dogs (each weighing 10 to 18 kg), anesthetized with nembutal, receive each test product (i) by intraduodenal administration at successive doses of 0.1 mg/kg, 0.5 mg/kg, 1 mg/kg, 2.5 mg/kg, 5 mg/kb, 10 mg/kg and 20 mg/kg, and then (ii) if appropriate, by intravenous administration at a dose of 10 mg/kg. The effects of 10 μg/kg of isoprenaline and/or 2 μg/kg of norepinephrine after the intraduodenal administration of a cumulative dose of 39.1 mg/kg are also assessed.
The following are measured: the total arterial blood pressure, the diastolic arterial blood pressure, the heart rate, the blood flows through the femoral and cerebral arteries and saphenous veins, the rectal temperature, the skin temperature and the pressure of the gases (essentially O2) dissolved in the arterial blood.

mice [11] = assay: Intergroup aggressiveness; type: in vivo; conditions: mice, i.p.
Summary of the method: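 Male mice housed 3 weeks per group in cage halves split by an opaque partition; groups of 3 given CRL 41 378 i.p. in distilled water.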

[12] = system: hypothermia, trembling and peripheral cholinergic symptoms induced by oxotremorine; assay: Interaction with oxotremorine; type: in vivo; conditions: mice, i.p.
Summary of the method: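 Male mice, groups of 6, given the compound intraperitoneally in distilled water (20 ml/kg) 0.5 h before 0.5 mg/kg oxotremorine i.p. Hypothermia, trembling and peripheral cholinergic symptoms were assessed.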

mice [13] = assay: Asphyxiant anoxia caused by gallamine triiodoethylate; type: in vivo; conditions: i.p., gallamine triiodoethylate 32 mg/kg
Method: as §1
Groups of 10 mice receive CRL 41 378 30 minutes before the intraperitoneal administration of 32 mg/kg of gallamine triiodoethylate (reference curarizing agent).

rats = assay: Overall behavior and reactivities in rats; type: in vivo; conditions: i.p.
Summary of the method: as §3

male mice = assay: Acute toxicity, intraperitoneal (LD0, LD30, LD60, LD100); type: in vivo; conditions: intraperitoneal
Method: as §1

[14] = system: hypothermia and ptosis induced by reserpine; assay: Interaction with reserpine; type: in vivo; conditions: mice, i.p.; reserpine 2.5 mg/kg; hydrochloride
Summary of the method: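 Reserpine 2.5 mg/kg i.p. given to male mice in groups of 12; test compound dissolved in distilled water and given i.p. (20 ml/kg) four hours later.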

mice [15] = assay: Traction; type: in vivo; conditions: i.p.
Method: as §1, §2

[16] = i.p., nialamide + (±)-5-HTP, male mice

Cl.OC1(c2ccccc2)CN=CNC1 (stereo not shown) [CRL 41 382, 5-hydroxy-5-phenyl-1,4,5,6-tetrahydropyrimidine hydrochloride]
blood flows through the femoral and vertebral arteries (anesthetized dogs [1]; intraduodenal): decreases the blood flows through the femoral and vertebral arteries
blood flows through the femoral and vertebral arteries (anesthetized dogs [1]; intravenous): decreases the blood flows through the femoral and vertebral arteries
action on stereotypies induced by apomorphine [2]: practically no modification of the stereotypies induced by apomorphine
analogy with β-adrenergic stimulants in the 5-HTP procedure ([3]; 5-HTP + MAOI): more closely resembles ritodrine or salbutamol
head twitches [3, 16]: practically no modification of the head twitches
partial trembling [3, 16]: moderate potentiation of the partial trembling
lethal effects of electric shock (mice [4]): aggravates (at a dose of 64 mg/kg) the lethal effects of electric shock
convulsant effects of electric shock (mice [4]; hydrochloride): does not oppose the convulsant effects; also recorded: absence of any anticonvulsant action
resumption in the motor activity of mice accustomed to their enclosure (mice [5]): does not cause a resumption in the motor activity of mice accustomed to their enclosure
teratogenic effects (pregnant rabbits): devoid of harmful teratogenic effects on pregnant rabbits
overall behavior and reactivities (mice [6]; 1 mg/kg, 4 mg/kg and 16 mg/kg): no distinct modification of the behavior and reactivities compared with the control animals
overall behavior and reactivities (mice [6]; 64 mg/kg, hydrochloride): sedation for 1 h; also recorded: a decrease in the reactivity to touch and the fear reaction for 0.5 h
spontaneous motor activity (mice [7]): does not modify the spontaneous motor activity of mice
motor recovery after acute hypobaric hypoxia (mice [8]): At doses of 16 mg/kg and 64 mg/kg, CRL 41 382 causes an increase in the motor recovery; also recorded: moderate increase in the motor recovery of mice after acute hypobaric hypoxia
duration of the sleep induced by barbital [9]: practically no modification of the duration of the sleep induced by barbital
rectal temperature (anesthetized dogs [10]): increases the rectal temperature
skin temperature (anesthetized dogs [10]): decreases the blood flows through the femoral and vertebral arteries and also the skin temperature
α-adrenergic stimulant effect (anesthetized dogs [10]): seems to have an α-adrenergic stimulant effect
arterial blood pressure (anesthetized dogs [10]; intraduodenal): hypertensive
heart rate (anesthetized dogs [10]; intraduodenal): practically no effect on the heart rate
arterial blood pressure (anesthetized dogs [10]; intravenous): hypotensive
heart rate (anesthetized dogs [10]; intravenous): bradycardic
effects of isoprenaline (anesthetized dogs [10]; isoprenaline 10 μg/kg): does not modify the effects of isoprenaline
hypertension induced by norepinephrine (anesthetized dogs [10]; norepinephrine 2 μg/kg): increases the hypertension caused by norepinephrine
intergroup aggressiveness (number of fights) (mice [11]): practically no modification of the number of fights
minimal effective dose ([12]; Mus musculus, ip, read-out: dose as from which the hypothermia induced by oxotremorine is antagonized): ≥ 1 mg/kg
action on signs of peripheral cholinergic stimulation induced by oxotremorine ([12]; oxotremorine 0.5 mg/kg): practically no modification of the trembling or the signs of peripheral cholinergic stimulation due to oxotremorine
action on trembling induced by oxotremorine ([12]; oxotremorine 0.5 mg/kg): practically no modification of the trembling
action on hypothermia induced by oxotremorine ([12]; oxotremorine 0.5 mg/kg, hydrochloride): the antagonism is very intense at a dose of 64 mg/kg; also recorded: antagonism of the hypothermia induced by apomorphine, oxotremorine and reserpine in mice
time taken for convulsions and death / lethal effects of gallamine triiodoethylate (mice [13]): practically no modification of the time taken for convulsions and death to occur
overall behavior and reactivities (rats; 0.5 mg/kg, 2 mg/kg and 8 mg/kg): behavior, reactivities and variations in the pupil diameter and rectal temperature which are analogous to those of the control group
overall behavior and reactivities (rats; 32 mg/kg): moderate mydriasis for 1 h
LD0 (maximum non-lethal dose) (male mice): greater than 256 mg/kg
LD60 (male mice): ~500 mg/kg
action on hypothermia induced by reserpine [14]: At doses of 4 mg/kg and 16 mg/kg, CRL 41 382 opposes the hypothermia induced by reserpine; also recorded: At the highest dose used (64 mg/kg), CRL 41 382 has no effect on the hypothermia induced by reserpine; also recorded: antagonism of the hypothermia induced by reserpine no longer appears at the high dose of CRL 41 382 used
action on ptosis induced by reserpine [14]: practically no modification of the ptosis induced by reserpine; also recorded: absence of antagonism of the ptosis induced by reserpine
motor incoordination / incapacity (mice [15]): does not cause major motor incapacity
